Assays:
Test in all cases: Ambit KinomeScan screening
Type in all cases: binding
Details in all cases: CAL-130 10 μM
EPHA8 = target: T1, EPHA8 (Homo sapiens, UniProt P29322)
T1 construct: purchased Ambit (KinomeScan screening service)
Method in brief: (§1)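 Here, % of control binding was determined for tagged kinases captured by an immobilized ligand in the presence of 10 μM CAL-130. Stronger interactions give lower percentages.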

PIM3 = target: T2, PIM3 (Homo sapiens, UniProt Q86V86)
T2 construct: unspecified tag; purchased Ambit (KinomeScan screening panel)
Method in brief: as §1

MELK = target: T3, MELK (Homo sapiens, UniProt Q14680)
T3 construct: purchased Ambit (KinomeScan screening)
Method in brief: as §1

CAMK1 = target: T4, CAMK1 (Homo sapiens, UniProt Q14012)
T4 construct: unspecified tag ("tagged kinases"); purchased Ambit (KinomeScan screening)
Method in brief: as §1

MARK4 = target: T5, MARK4 (Homo sapiens, UniProt Q96L34)
T5 construct: purchased Ambit (KinomeScan screening)
Method in brief: as §1

NLK = target: T6, NLK (Homo sapiens, UniProt Q9UBE8)
T6 construct: purchased Ambit (KinomeScan screening service)
Method in brief: as §1

FLT3(D835Y) = target: T7, FLT3(D835Y) (Homo sapiens, UniProt P36888, D835Y)
T7 construct: unspecified tag; purchased Ambit (KinomeScan screening service)
Method in brief: as §1

KIT(V559D, V654A) = target: T8, KIT(V559D, V654A) (Homo sapiens, UniProt P10721, V559D/V654A)
T8 construct: unspecified tag ('tagged kinases'); purchased Ambit (KinomeScan screening service)
Method in brief: as §1

TAO1 = target: T9, TAO1 (Homo sapiens, UniProt Q9UL54)
T9 construct: tag (kind not specified); purchased Ambit (KinomeScan screening service)
Method in brief: as §1

MAK = target: T10, MAK (Homo sapiens, UniProt P20794)
T10 construct: unspecified tag ('tagged kinases'); purchased Ambit (KinomeScan screening service)
Method in brief: as §1

PIK3CD = target: T11, PIK3CD (Homo sapiens, UniProt O00329)
T11 construct: unspecified tag; purchased Ambit (KinomeScan screening panel)
Method in brief: as §1

TIE2 = target: T12, TIE2 (Homo sapiens, UniProt Q02763)
T12 construct: unspecified tag (tagged kinase); purchased Ambit (KinomeScan screening)
Method in brief: as §1

MST1R = target: T13, MST1R (Homo sapiens, UniProt Q04912)
T13 construct: unspecified tag ('tagged kinases'); purchased Ambit (KinomeScan screening)
Method in brief: as §1

MST1 = target: T14, MST1 (Homo sapiens, UniProt Q13043)
T14 construct: unspecified tag ('tagged kinases'); purchased Ambit (KinomeScan screening)
Method in brief: as §1

MARK2 = target: T15, MARK2 (Homo sapiens, UniProt Q7KZI7)
T15 construct: Ambit (KinomeScan screening)
Method in brief: as §1

TNNI3K = target: T16, TNNI3K (Homo sapiens, UniProt Q59H18)
T16 construct: unspecified tag (tagged kinase); purchased Ambit (KinomeScan screening)
Method in brief: as §1

PIK3CB = target: T17, PIK3CB (Homo sapiens, UniProt P42338)
T17 construct: unspecified tag; purchased Ambit (KinomeScan screening panel)
Method in brief: as §1

NEK6 = target: T18, NEK6 (Homo sapiens, UniProt Q9HC98)
T18 construct: unspecified tag; purchased Ambit (KinomeScan screening panel)
Method in brief: as §1

MET(M1250T) = target: T19, MET(M1250T) (Homo sapiens, UniProt P08581, M1250T)
T19 construct: purchased Ambit (KinomeScan screening)
Method in brief: as §1

MYO3A = target: T20, MYO3A (Homo sapiens, UniProt Q8NEV4)
T20 construct: unspecified tag; purchased Ambit (KinomeScan screening panel)
Method in brief: as §1

CDK5 = target: T21, CDK5 (Homo sapiens, UniProt Q00535)
T21 construct: purchased Ambit (KinomeScan screening)
Method in brief: as §1

ABL1(M351T) = target: T22, ABL1(M351T) (Homo sapiens, UniProt P00519, M351T)
T22 construct: unspecified tag ("tagged kinases"); purchased Ambit (KinomeScan screening)
Method in brief: as §1

CLK2 = target: T23, CLK2 (Homo sapiens, UniProt P49760)
T23 construct: purchased Ambit (KinomeScan screening service)
Method in brief: as §1

ACVR2B = target: T24, ACVR2B (Homo sapiens, UniProt Q13705)
T24 construct: purchased Ambit (KinomeScan screening)
Method in brief: as §1

AAK1 = target: T25, AAK1 (Homo sapiens, UniProt Q2M2I8)
T25 construct: unspecified tag ("tagged kinases"); purchased Ambit (KinomeScan screening)
Method in brief: as §1

NEK1 = target: T26, NEK1 (Homo sapiens, UniProt Q96PY6)
T26 construct: unspecified tag; purchased Ambit (KinomeScan screening panel)
Method in brief: as §1

GRK4 = target: T27, GRK4 (Homo sapiens, UniProt P32298)
T27 construct: unspecified tag ('tagged kinases'); purchased Ambit (KinomeScan screening service)
Method in brief: as §1

PKN1 = target: T28, PKN1 (Homo sapiens, UniProt Q16512)
T28 construct: purchased Ambit (KinomeScan screening service)
Method in brief: as §1

MYO3B = target: T29, MYO3B (Homo sapiens, UniProt Q8WXR4)
T29 construct: unspecified tag; purchased Ambit (KinomeScan screening panel)
Method in brief: as §1

ABL1 = target: T30, ABL1 (Homo sapiens, UniProt P00519)
T30 construct: unspecified tag ("tagged kinases"); purchased Ambit (KinomeScan screening)
Method in brief: as §1

MEK1 = target: T31, MEK1 (Homo sapiens, UniProt Q02750)
T31 construct: purchased Ambit (KinomeScan screening)
Method in brief: as §1

EGFR(L861Q) = target: T32, EGFR(L861Q) (Homo sapiens, UniProt P00533, L861Q)
T32 construct: unspecified tag; purchased Ambit (KinomeScan screening service)
Method in brief: as §1

PKMYT1 = target: T33, PKMYT1 (Homo sapiens, UniProt Q99640)
T33 construct: purchased Ambit (KinomeScan screening service)
Method in brief: as §1

YSK4 = target: T34, YSK4 (Homo sapiens, UniProt Q56UN5)
T34 construct: purchased Ambit (KinomeScan screening service)
Method in brief: as §1

AKT3 = target: T35, AKT3 (Homo sapiens, UniProt Q9Y243)
T35 construct: purchased Ambit (KinomeScan screening)
Method in brief: as §1

T17 sequence (P42338 whole entry): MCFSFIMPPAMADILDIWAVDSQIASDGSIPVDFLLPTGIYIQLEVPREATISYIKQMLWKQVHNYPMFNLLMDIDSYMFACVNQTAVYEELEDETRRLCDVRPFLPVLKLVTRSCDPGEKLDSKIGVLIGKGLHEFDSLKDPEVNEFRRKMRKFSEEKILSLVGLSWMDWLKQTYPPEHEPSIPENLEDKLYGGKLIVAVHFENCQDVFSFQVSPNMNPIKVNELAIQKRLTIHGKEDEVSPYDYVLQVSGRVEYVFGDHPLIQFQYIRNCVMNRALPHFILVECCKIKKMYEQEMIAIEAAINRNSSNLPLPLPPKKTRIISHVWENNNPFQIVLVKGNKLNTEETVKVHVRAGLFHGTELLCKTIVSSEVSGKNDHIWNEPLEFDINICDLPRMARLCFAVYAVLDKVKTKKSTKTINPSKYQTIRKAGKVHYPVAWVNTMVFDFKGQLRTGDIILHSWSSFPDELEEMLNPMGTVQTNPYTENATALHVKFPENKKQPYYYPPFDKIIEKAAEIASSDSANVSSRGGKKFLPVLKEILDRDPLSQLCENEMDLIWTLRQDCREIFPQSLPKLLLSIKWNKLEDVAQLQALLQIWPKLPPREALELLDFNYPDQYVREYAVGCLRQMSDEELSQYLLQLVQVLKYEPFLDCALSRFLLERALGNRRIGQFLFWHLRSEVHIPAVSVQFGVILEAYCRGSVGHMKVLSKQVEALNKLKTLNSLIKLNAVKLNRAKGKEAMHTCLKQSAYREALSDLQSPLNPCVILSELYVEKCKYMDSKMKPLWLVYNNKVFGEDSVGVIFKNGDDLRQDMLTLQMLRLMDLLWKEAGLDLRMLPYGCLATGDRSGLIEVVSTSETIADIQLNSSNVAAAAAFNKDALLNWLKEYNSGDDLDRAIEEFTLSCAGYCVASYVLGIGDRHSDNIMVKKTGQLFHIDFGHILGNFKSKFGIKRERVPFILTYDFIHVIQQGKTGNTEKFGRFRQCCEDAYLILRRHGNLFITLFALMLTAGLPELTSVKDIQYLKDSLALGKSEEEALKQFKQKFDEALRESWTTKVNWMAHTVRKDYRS
T11 sequence (O00329 whole entry): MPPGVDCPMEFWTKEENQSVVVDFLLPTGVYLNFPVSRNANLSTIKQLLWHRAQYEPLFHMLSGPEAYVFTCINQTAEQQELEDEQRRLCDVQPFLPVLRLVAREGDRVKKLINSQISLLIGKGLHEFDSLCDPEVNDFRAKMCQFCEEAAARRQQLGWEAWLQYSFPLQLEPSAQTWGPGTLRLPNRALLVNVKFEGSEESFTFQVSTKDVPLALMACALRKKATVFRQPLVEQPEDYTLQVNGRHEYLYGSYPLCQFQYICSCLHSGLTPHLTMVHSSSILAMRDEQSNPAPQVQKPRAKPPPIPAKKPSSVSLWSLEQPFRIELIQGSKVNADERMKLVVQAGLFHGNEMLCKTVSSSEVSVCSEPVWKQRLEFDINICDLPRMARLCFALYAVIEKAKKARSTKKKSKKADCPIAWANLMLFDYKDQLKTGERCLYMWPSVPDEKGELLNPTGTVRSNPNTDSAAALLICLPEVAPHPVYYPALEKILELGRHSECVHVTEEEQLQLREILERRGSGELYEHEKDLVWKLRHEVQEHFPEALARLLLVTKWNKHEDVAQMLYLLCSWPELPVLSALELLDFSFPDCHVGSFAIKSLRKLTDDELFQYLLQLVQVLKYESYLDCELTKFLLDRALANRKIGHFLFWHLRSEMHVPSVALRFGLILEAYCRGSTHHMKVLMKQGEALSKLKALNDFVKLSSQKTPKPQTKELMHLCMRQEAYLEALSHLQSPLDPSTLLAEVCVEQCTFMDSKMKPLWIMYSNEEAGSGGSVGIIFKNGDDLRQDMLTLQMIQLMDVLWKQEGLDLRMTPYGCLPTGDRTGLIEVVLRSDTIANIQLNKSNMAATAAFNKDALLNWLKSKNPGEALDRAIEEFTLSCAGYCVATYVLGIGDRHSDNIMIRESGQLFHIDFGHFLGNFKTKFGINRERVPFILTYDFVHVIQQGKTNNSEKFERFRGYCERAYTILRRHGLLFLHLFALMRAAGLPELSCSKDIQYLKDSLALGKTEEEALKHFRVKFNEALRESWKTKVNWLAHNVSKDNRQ
T31 sequence (Q02750 whole entry): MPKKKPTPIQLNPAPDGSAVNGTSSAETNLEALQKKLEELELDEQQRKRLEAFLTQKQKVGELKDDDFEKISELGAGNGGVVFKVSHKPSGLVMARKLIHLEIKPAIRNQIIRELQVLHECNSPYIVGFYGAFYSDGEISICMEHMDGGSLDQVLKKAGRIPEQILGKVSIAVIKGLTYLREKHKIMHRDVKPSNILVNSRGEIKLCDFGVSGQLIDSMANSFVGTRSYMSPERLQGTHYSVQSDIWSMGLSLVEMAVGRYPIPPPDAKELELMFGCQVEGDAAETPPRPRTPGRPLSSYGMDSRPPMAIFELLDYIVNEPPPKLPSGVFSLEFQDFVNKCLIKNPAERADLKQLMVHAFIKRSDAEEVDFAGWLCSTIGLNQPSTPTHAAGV
T33 sequence (Q99640 whole entry): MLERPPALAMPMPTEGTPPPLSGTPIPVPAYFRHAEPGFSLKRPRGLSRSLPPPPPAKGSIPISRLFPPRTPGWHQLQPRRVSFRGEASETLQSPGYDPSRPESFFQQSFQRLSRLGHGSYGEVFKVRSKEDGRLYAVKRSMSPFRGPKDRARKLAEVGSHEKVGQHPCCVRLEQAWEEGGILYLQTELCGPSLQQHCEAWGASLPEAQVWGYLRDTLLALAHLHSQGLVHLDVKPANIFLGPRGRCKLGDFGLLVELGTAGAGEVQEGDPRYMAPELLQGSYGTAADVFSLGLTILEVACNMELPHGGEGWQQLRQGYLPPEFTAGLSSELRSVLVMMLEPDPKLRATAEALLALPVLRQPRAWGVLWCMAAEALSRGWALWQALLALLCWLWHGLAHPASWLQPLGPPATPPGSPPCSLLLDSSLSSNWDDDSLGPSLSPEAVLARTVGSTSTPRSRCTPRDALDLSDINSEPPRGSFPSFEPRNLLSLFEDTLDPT
T5 sequence (Q96L34 whole entry): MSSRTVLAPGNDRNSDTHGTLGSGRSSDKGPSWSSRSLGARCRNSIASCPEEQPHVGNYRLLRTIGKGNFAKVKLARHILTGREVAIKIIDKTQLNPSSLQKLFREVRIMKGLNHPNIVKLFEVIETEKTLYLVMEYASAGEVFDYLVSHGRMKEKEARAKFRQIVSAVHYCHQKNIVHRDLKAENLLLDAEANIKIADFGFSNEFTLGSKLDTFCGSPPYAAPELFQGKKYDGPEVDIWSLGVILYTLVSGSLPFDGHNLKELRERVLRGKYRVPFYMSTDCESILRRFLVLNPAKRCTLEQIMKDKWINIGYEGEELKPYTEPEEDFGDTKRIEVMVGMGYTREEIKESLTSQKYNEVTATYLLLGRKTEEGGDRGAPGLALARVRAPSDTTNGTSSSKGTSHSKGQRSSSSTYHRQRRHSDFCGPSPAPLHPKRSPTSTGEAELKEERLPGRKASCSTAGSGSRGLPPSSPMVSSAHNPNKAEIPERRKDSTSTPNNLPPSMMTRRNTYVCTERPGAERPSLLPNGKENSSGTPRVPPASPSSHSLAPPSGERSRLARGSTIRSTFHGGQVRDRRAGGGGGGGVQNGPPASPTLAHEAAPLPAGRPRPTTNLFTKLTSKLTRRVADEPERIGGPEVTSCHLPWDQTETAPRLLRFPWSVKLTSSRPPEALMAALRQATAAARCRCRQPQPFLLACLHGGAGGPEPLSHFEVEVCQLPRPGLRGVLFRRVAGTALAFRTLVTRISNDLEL
T35 sequence (Q9Y243 whole entry): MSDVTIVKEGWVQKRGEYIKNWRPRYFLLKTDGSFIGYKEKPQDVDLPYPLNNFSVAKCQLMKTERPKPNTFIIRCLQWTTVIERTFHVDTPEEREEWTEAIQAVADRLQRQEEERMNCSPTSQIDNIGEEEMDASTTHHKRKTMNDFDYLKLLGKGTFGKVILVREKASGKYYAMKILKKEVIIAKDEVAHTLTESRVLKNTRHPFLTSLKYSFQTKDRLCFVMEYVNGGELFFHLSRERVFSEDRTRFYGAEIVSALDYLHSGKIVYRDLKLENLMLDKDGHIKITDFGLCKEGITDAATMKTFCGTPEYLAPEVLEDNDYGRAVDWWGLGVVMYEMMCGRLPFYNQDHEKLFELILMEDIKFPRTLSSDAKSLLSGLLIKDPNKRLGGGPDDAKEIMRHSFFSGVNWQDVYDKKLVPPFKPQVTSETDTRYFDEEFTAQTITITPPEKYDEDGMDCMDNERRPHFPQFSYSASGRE
T21 sequence (Q00535 whole entry): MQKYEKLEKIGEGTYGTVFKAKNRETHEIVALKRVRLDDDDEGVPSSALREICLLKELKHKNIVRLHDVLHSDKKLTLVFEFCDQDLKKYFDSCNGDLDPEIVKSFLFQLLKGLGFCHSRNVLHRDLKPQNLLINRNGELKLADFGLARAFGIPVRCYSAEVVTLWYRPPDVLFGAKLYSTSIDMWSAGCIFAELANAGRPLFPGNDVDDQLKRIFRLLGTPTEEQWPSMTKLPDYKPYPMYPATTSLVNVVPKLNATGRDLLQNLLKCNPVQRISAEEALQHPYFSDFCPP

Cc1ccccc1-n1c(C(C)Nc2nc(N)nc3nc[nH]c23)nc2cccc(C)c2c1=O (stereo not shown) [CAL-130]
Percent of Control Binding (EPHA8): 100%
Percent of Control Binding (PIM3): 100%
Percent of Control Binding (MELK): 100%
Percent of Control Binding (CAMK1): 100%
Percent of Control Binding (MARK4): 100%
Percent of Control Binding (NLK): 100%
Percent of Control Binding (FLT3(D835Y)): 100%
Percent of Control Binding (KIT(V559D, V654A)): 100%
Percent of Control Binding (TAO1): 100%
Percent of Control Binding (MAK): 100%
Percent of Control Binding (PIK3CD; PI3KCD (Table 2)): 0.1%
Percent of Control Binding (PIK3CD; PIK3CD / PI3Kδ (Table 1)): 0.2%
Percent of Control Binding (TIE2): 100%
Percent of Control Binding (MST1R): 100%
Percent of Control Binding (MST1): 100%
Percent of Control Binding (MARK2): 100%
Percent of Control Binding (TNNI3K): 100%
Percent of Control Binding (PIK3CB; PI3KCB (Table 2)): 10%
Percent of Control Binding (PIK3CB; PIK3CB (Table 1)): 3.2%
Percent of Control Binding (NEK6): 100%
Percent of Control Binding (MET(M1250T)): 100%
Percent of Control Binding (MYO3A): 100%
Percent of Control Binding (CDK5): 100%
Percent of Control Binding (ABL1(M351T)): 100%
Percent of Control Binding (CLK2): 100%
Percent of Control Binding (ACVR2B): 100%
Percent of Control Binding (AAK1): 100%
Percent of Control Binding (NEK1): 100%
Percent of Control Binding (GRK4): 100%
Percent of Control Binding (PKN1): 100%
Percent of Control Binding (MYO3B): 100%
Percent of Control Binding (ABL1): 100%
Percent of Control Binding (MEK1): 100%
Percent of Control Binding (EGFR(L861Q)): 100%
Percent of Control Binding (PKMYT1): 100%
Percent of Control Binding (YSK4): 100%
Percent of Control Binding (AKT3): 100%
